Measured values taken from patent publication US11786525B1, “High-efficiency anti-tumor nano-drug delivery system containing hydralazine and preparation method thereof” (SHANGHAI INSTITUTE FOR ADVANCED STUDY ZHE JIANG UNIVERSITY, priority 2022, dated 2023).

Key:
[1] = tested on: vascular epithelial cells (HUVEC); test: Cytotoxicity to HUVEC cells; assay type: cell-based; conditions: incubated 48 h, different concentrations
Description: (§1) At the cellular level, the cytotoxicity of HDZ to cells is first tested. HDZ at different concentrations is incubated with mouse breast cancer cells (4T1), human breast cancer cells (MBA-MD-231), and vascular epithelial cells (HUVEC) for 48 h. […] Then, the cytotoxicity of D-NPs, C-NPs, H-NPs, and DOX with 4T1, MBA-MD-231, and HUVEC cells is subsequently tested. The experimental results are shown in FIG. 3B, FIG. 3C and FIG. 3D. […] This is because there is a polypeptide cRGD on the surface of C-NPs targeting the integrin αvβ3 overexpressed on the surface of 4T1 and MBA-MD-231 tumor cells, which can make more C-NPs enter the tumor cells and improve their cytotoxicity.

[2] = tested on: mouse breast cancer cells (4T1); test: Cytotoxicity to 4T1 cells; assay type: cell-based; conditions: incubated 48 h, different concentrations
Description: as §1

[3] = tested on: human breast cancer cells (MBA-MD-231); test: Cytotoxicity to MBA-MD-231 cells; assay type: cell-based; conditions: incubated 48 h, different concentrations
Description: as §1

4T1 tumor-bearing mice = test: Biodistribution in 4T1 tumor-bearing mice (tissue grinding, fluorescence analysis); assay type: in vivo; conditions: at 48 h versus 24 h
Description: In addition, in order to detect the difference in the distribution of free doxorubicin, D-NPs and H-NPs in tumors and other organs, 4T1 tumor-bearing mice are sacrificed at different time intervals after intravenous injection of different drugs, the organs of the mice are taken out for tissue grinding and extraction, and finally fluorescence analysis is performed. It can be seen that compared with free doxorubicin, D-NPs and H-NPs have higher enrichment rates in various organs and tumors of mice, which are about 1.52 and about 1.81 times (24 h) higher than free doxorubicin, respectively. […] From the above cytotoxicity and blood circulation experiments, it can be inferred that this is because compared with free doxorubicin, D-NPs and H-NPs have longer blood circulation capacity in the blood and are not easy to be cleared by cells.

change of enrichment in the tumor site with extension of time (4T1 tumor-bearing mice)	Compound	cytotoxicity [1]	cytotoxicity [2]	cytotoxicity [3]
	NNc1nncc2ccccc12 [HDZ, hydralazine]	not very toxic	not very toxic	not very toxic
decreases	COc1cccc2c1C(=O)c1c(O)c3c(c(O)c1C2=O)C[C@@](O)(C(=O)CO)C[C@@H]3O[C@H]1C[C@H](N)[C@H](O)[C@H](C)O1 [free doxorubicin, doxorubicin]			
